Consider 23 compounds from patent US20260055077A1, “PROTEIN DEGRADATION AGENT” (SUZHOU KINTOR PHARMACEUTICALS, INC., priority 2022, published 2026).

By IC50 is commonly meant the concentration that inhibits the measured activity by half.

One assay relates to HL60 cells. As to the kind of experiment: Anti-proliferation ability of compounds on HL60 cells (CellTiter-Glo). Type of assay: cell-based. Conditions: Homo sapiens, HL-60, 72 h, incubated 3 days, CTG luminescence, IC50 calculated by XLfit. How it is done: • I. Anti-proliferation ability of compounds on HL60 cells • Activity test methods: • 1. Cell plating • HL60 cells in the logarithmic growth phase were counted and plated evenly in a 96-well transparent bottom white plate at 20000 cells per well and […] per well. • 2. Drug addition to cells • A certain amount of the compounds was weighed and diluted with DMSO to a 10 mM stock solution. The culture mediums corresponding to the cells were taken, and the drugs were diluted to the concentration required by the test, shaken gently and mixed evenly. 50 μl of the gradient dilution of the diluted compound was added to each well of the plated cells, and 50 μl of 0.1% DMSO was added to the control group. The plate was shaken gently, mixed evenly and incubated in a cell culture incubator for 3 days. • 3. CTG detection • 3.1 The CellTiter-Glo™ (CTG) reagent was taken in advance from the −20° C. refrigerator and equilibrated to room temperature in the dark. • 3.2 The 96-well plate was taken out and inspected under a microscope for growth situation. • 3.3 The bottom of the 96-well plate was tagged with white paper, and then the plate was wrapped with tin foil paper, shaken at 37° C. at 300 r for 10 mina and mixed evenly. • 3.4 50 ul of CTG detection reagent was added to each well, Luminescence signal was detected using a microplate reader, and the inhibition rate was calculated. IC50 values of the compounds were calculated by XLfit software to evaluate the proliferation inhibitory activity on 11160 cells.
For `O=C1CCC(N2Cc3cc(C(=O)NCc4ccc(CN(CCc5ccccc5)C(=O)CCO)cc4)ccc3C2=O)C(=O)N1` (stereo not shown) [KT-033], the IC50 is 6 ± 1.6 nM.
Still for that read-out and setting: under `CN(CCc1ccccc1)Cc1ccc(C(=O)NCc2ccc3c(c2)CN(C2CCC(=O)NC2=O)C3=O)c(O)c1` (stereo not shown) [KT-034] stands 9.9 ± 3 nM; under `O=C1CCC(N2Cc3cc(C(=O)NCc4ccc(CN(CCc5cccc6ccccc56)C(=O)CS)cc4)ccc3C2=O)C(=O)N1` (stereo not shown) [KT-042], 34 ± 7 nM.
For `NCc1cc(-c2cccc3cccnc23)cnc1N1CCC(CC(=O)Nc2ccc3c(c2)CN(C2CCC(=O)NC2=O)C3=O)CC1` (stereo not shown) [KT-029], the IC50 is 0.57 ± 0.1 nM.
On the same count and under the same terms, to `O=C1CCC(N2Cc3cc(NC(=O)CC4CCN(c5ncc(-c6cccc7cccnc67)cc5OCCO)CC4)ccc3C2=O)C(=O)N1` (stereo not shown) [KT-031] belongs less than 0.34 nM.
With `NCCOc1cc(-c2cccc3cccnc23)cnc1N1CCC(CC(=O)Nc2ccc3c(c2)CN(C2CCC(=O)NC2=O)C3=O)CC1` (stereo not shown) [KT-032], the concentration for half-maximal inhibition (IC50) is 5620 nM.
For `O=C1CCC(N2Cc3cc(C(=O)NCc4ccc(CNCCc5cccc6ccccc56)cc4)ccc3C2=O)C(=O)N1` (stereo not shown) [KT-025], the half-inhibitory concentration (IC50) is less than 3.04 nM.
Still for that read-out and setting: to `O=C1CCC(N2Cc3cc(NC(=O)CC4CCN(c5ncc(-c6cccc7cccnc67)cc5CO)CC4)ccc3C2=O)C(=O)N1` (stereo not shown) [KT-028] belongs less than 0.34 nM; to `O=C1CCC(N2Cc3cc(NC(=O)CC4CCN(c5ncc(Br)cc5CO)CC4)ccc3C2=O)C(=O)N1` (stereo not shown) [KT-026], 23 ± 3 nM; to `O=C1CCC(N2Cc3cc(C(=O)NCc4ccc(CN(CCO)CCc5ccccc5)cc4)ccc3C2=O)C(=O)N1` (stereo not shown) [KT-001], less than 3.04 nM.
Still for that read-out and setting: to `O=C1CCC(N2Cc3cc(C(=O)NCc4ccc(CN(CCO)CCc5cccc6ccccc56)cc4)ccc3C2=O)C(=O)N1` (stereo not shown) [KT-003] belongs 0.71 ± 0.04 nM; to `Cc1ccc(N2CCN(Cc3ccc(C(=O)NCc4ccc5c(c4)CN(C4CCC(=O)NC4=O)C5=O)cc3)C(CO)C2)cc1Cl` (stereo not shown) [KT-022], 1.03 ± 0.19 nM; to `O=C1CCC(N2Cc3cc(CNC(=O)c4ccc(CN5CCN(c6ccc(OCCO)c(Cl)c6)CC5)cc4)ccc3C2=O)C(=O)N1` (stereo not shown) [KT-019], 2.8 ± 0.1 nM.
On the same count and under the same terms, to `O=C(Cn1c2ccccc2c2cccnc21)NCc1ccc(CNC(=O)c2ccc3c(c2)CN(C2CCC(=O)NC2=O)C3=O)c(OCCO)c1` (stereo not shown) [KT-006] belongs 2.19 ± 1.5 nM; to `CN(Cc1ccc(C(=O)NCc2ccc3c(c2)CN(C2CCC(=O)NC2=O)C3=O)cc1)CC(O)c1ccccc1` (stereo not shown) [KT-013], 3.45 ± 0.52 nM.
`O=C1CCC(N2Cc3cc(C(=O)NCc4ccc(CN(CCO)CCc5ccc(Cl)c(Cl)c5)cc4)ccc3C2=O)C(=O)N1` (stereo not shown) [KT-002]: the IC50 is less than 3.04 nM.
Same read-out and setting: to `O=C1CCC(N2Cc3cc(C(=O)NCc4ccc(CN(Cc5ccccc5)C(=O)CO)cc4)ccc3C2=O)C(=O)N1` (stereo not shown) [KT-016] belongs 3.04 ± 0.84 nM.
Still for that read-out and setting: to `Cc1ccc(N2CCN(Cc3ccc(C(=O)NCc4ccc5c(c4)CN(C4CCC(=O)NC4=O)C5=O)c(O)c3)CC2)cc1Cl` (stereo not shown) [KT-020] belongs 1.36 ± 0.67 nM; to `O=C1CCC(N2Cc3cc(C(=O)NCc4ccc(CN(CCc5ccccc5)C(=O)NCCO)cc4)ccc3C2=O)C(=O)N1` (stereo not shown) [KT-015], 24.2 ± 10.1 nM; to `CC(=O)c1ccc(N2CCN(Cc3ccc(C(=O)NCc4ccc5c(c4)CN(C4CCC(=O)NC4=O)C5=O)cc3)CC2)cc1Cl` (stereo not shown) [KT-041], less than 3.04 nM.
Same read-out and setting: to `O=C1CCC(N2Cc3cc(CNC(=O)c4ccc(CN5CCN(c6ccc(CO)c(Cl)c6)CC5)cc4)ccc3C2=O)C(=O)N1` (stereo not shown) [KT-018] belongs 2.17 ± 0.78 nM; to `O=C1CCC(N2Cc3cc(CNC(=O)c4ccc(CN5CCN(c6ccc(O)c(Cl)c6)CC5)cc4)ccc3C2=O)C(=O)N1` (stereo not shown) [KT-017], 10.5 ± 0.4 nM; to `O=C1CCC(N2Cc3cc(NC(=O)CC4CCN(c5ncc(-c6nccc7ccccc67)cc5CO)CC4)ccc3C2=O)C(=O)N1` (stereo not shown) [KT-030], less than 0.34 nM.

In a further assay the target is T1, c-Myc (Homo sapiens, UniProt P01106).
T1 construct: endogenous in cells; host or cells: HL60 (human acute promyelocytic leukemia cells)
T1 sequence (P01106 whole entry): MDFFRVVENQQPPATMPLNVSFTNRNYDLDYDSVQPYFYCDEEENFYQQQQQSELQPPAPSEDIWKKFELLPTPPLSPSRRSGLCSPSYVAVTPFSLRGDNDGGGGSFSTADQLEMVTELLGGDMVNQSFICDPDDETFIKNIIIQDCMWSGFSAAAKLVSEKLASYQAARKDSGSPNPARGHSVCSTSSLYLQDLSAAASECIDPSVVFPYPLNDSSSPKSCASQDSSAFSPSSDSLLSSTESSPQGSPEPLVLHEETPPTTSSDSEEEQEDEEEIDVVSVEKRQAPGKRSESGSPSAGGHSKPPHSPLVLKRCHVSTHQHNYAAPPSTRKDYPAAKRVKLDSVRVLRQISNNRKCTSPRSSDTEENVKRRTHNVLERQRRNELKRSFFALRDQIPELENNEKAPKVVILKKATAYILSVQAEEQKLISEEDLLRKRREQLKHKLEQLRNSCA
As to the kind of experiment: Protein degradation experiment (Western blot), c-Myc in HL60 cells. Type of assay: cell-based. The following applies: 6 h of drug treatment, FIG. 1, at lower concentration (about 3 μm to 10 nmn). How it is done: (§1) Cell culture conditions: The cells in the embodiments of the invention were purchased from Shanghai Cell Bank, Chinese Academy of Sciences. Human acute promyelocytic leukemia cells (HL60 cells) were cultured in RPMI-1640 (meilunbio, MA0215)^+20% FBS(manufacturer: Bi, product number: 04-001-1ACS)^+1% penicillin/streptomycin (manufacturer: Hyclone, product number: SH40003.01). The cell culture conditions were 5% CO2 and […]. When the cell coverage reached about 80%, the cells were passaged at a ratio of 1:3.
(§2) 2. Cell drug treatment and protein extraction 2.1 Cell treatment
(§3) The designated cells in the exponential growth phase were digested and plated into a 6-well plate at 1 10^6 cells per well. […]
(§4) By using the BCA protein concentration determination kit (from Thermo Fisher, Cat. No. 23225), the BSA standard determination solution and the supernatant in 2.2 to be tested (the supernatant can be diluted and then tested) were prepared according to the table 2 below. […] The plate was placed at 60′C for 10 min, and then the absorbance at 562 nim was detected. After the reading was recorded, a standard curve was plotted using concentration gradients of the standards, and the absorbance of the samples was substituted to calculate the protein concentration of the samples. […]
On the technique in general: In western blotting, separated proteins are transferred to a membrane and probed.
As for `O=C1CCC(N2Cc3cc(C(=O)NCc4ccc(CN(CCO)CCc5ccc(Cl)c(Cl)c5)cc4)ccc3C2=O)C(=O)N1` (stereo not shown) [KT-002], the “degradation of e-Myc (c-Myc) protein in HL60 cells” value is “completely degrade”.

In the next assay the target is T2, GSPT1 (Homo sapiens, UniProt P15170).
T2 construct: endogenous in cells; host or cells: HL60 (human acute promyelocytic leukemia cells)
T2 sequence (P15170 whole entry): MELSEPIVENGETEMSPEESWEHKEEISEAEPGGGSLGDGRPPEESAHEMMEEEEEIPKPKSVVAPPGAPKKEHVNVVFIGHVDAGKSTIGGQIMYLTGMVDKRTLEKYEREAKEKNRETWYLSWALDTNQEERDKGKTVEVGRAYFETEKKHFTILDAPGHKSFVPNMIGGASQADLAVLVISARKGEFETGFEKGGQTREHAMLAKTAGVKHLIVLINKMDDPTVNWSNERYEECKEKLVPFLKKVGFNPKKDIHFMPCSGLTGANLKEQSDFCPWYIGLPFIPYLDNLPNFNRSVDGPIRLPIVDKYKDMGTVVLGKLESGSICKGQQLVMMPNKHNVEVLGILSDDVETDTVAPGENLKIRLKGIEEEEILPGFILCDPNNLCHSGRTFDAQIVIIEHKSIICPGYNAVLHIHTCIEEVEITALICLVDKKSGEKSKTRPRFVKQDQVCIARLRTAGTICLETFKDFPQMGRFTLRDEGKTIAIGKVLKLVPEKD
Description: Protein degradation experiment (Western blot), GSPT1 in HL60 cells. Conditions: 6 h of drug treatment, FIG. 1, at lower concentration (about 3 μm to 10 nmn). Type of assay: cell-based. On the procedure:
as §1, §2, §3, §4
As for `O=C1CCC(N2Cc3cc(C(=O)NCc4ccc(CN(CCO)CCc5ccc(Cl)c(Cl)c5)cc4)ccc3C2=O)C(=O)N1` (stereo not shown) [KT-002], the “degradation of GSPT1 protein in HL60 cells” value was “completely degrade”.
